From PubChem BioAssay (NCI)
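The compound was tested at five concentrations on cells cultured in 96-well plates, with a 48-hour exposure period. GI50: concentration for 50% inhibition of growth. TGI: concentration producing complete growth inhibition.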

Columns and labels:
Test in all cases: NCI-60 cell line screen, 48 h
786-0 renal = tested on: 786-0 renal
A498 renal = tested on: A498 renal
A549 NSCLC = tested on: A549 NSCLC
ACHN renal = tested on: ACHN renal
BT-549 breast = tested on: BT-549 breast
CAKI-1 renal = tested on: CAKI-1 renal
CCRF-CEM leukemia = tested on: CCRF-CEM leukemia
COLO 205 colon = tested on: COLO 205 colon
DU-145 prostate = tested on: DU-145 prostate
EKVX NSCLC = tested on: EKVX NSCLC
HCC-2998 colon = tested on: HCC-2998 colon
HCT-116 colon = tested on: HCT-116 colon
HCT-15 colon = tested on: HCT-15 colon
HL-60(TB) leukemia = tested on: HL-60(TB) leukemia
HOP-62 NSCLC = tested on: HOP-62 NSCLC
HS 578T breast = tested on: HS 578T breast
HT29 colon = tested on: HT29 colon
IGROV1 ovarian = tested on: IGROV1 ovarian
K-562 leukemia = tested on: K-562 leukemia
KM12 colon = tested on: KM12 colon
LOX IMVI melanoma = tested on: LOX IMVI melanoma
M14 melanoma = tested on: M14 melanoma
MALME-3M melanoma = tested on: MALME-3M melanoma
MCF7 breast = tested on: MCF7 breast
MDA-MB-231 breast = tested on: MDA-MB-231 breast
MDA-MB-435 = tested on: MDA-MB-435
MOLT-4 leukemia = tested on: MOLT-4 leukemia
NCI-H226 lung = tested on: NCI-H226 lung
NCI-H23 lung = tested on: NCI-H23 lung
NCI-H460 lung = tested on: NCI-H460 lung
NCI-H522 lung = tested on: NCI-H522 lung
NCI/ADR-RES ovarian = tested on: NCI/ADR-RES ovarian
OVCAR-4 ovarian = tested on: OVCAR-4 ovarian
OVCAR-5 ovarian = tested on: OVCAR-5 ovarian
OVCAR-8 ovarian = tested on: OVCAR-8 ovarian
PC-3 prostate = tested on: PC-3 prostate
RPMI-8226 leukemia = tested on: RPMI-8226 leukemia
RXF 393 renal = tested on: RXF 393 renal
SF-268 CNS = tested on: SF-268 CNS
SF-295 CNS = tested on: SF-295 CNS
SF-539 CNS = tested on: SF-539 CNS
SK-MEL-2 melanoma = tested on: SK-MEL-2 melanoma
SK-MEL-28 melanoma = tested on: SK-MEL-28 melanoma
SK-MEL-5 melanoma = tested on: SK-MEL-5 melanoma
SK-OV-3 ovarian = tested on: SK-OV-3 ovarian
SN12C renal = tested on: SN12C renal
SNB-19 CNS = tested on: SNB-19 CNS
SNB-75 CNS = tested on: SNB-75 CNS
SR leukemia = tested on: SR leukemia
SW-620 colon = tested on: SW-620 colon
T-47D breast = tested on: T-47D breast
TK-10 renal = tested on: TK-10 renal
U251 CNS = tested on: U251 CNS
UACC-257 melanoma = tested on: UACC-257 melanoma
UACC-62 melanoma = tested on: UACC-62 melanoma
UO-31 renal = tested on: UO-31 renal

## Oc1ccc(CSc2nnc(-c3cnccn3)n2-c2ccccc2)c2cccnc12
786-0 renal
  GI50: 3.7 µM
  TGI: 34 µM
A498 renal
  GI50: 2600 nM
  TGI: 10.1 µM
A549 NSCLC
  GI50: 1180 nM
  TGI: > 100 µM
ACHN renal
  GI50: 641 nM
  TGI: > 40.9 µM
BT-549 breast
  GI50: 736 nM
  TGI: > 49.6 µM
CAKI-1 renal
  GI50: 1980 nM
  TGI: > 92.3 µM
CCRF-CEM leukemia
  GI50: 563 nM
  TGI: > 100 µM
COLO 205 colon
  GI50: 11.7 µM
  TGI: > 100 µM
DU-145 prostate
  GI50: 669 nM
  TGI: > 100 µM
EKVX NSCLC
  GI50: 1870 nM
  TGI: > 100 µM
HCC-2998 colon
  GI50: 2900 nM
  TGI: > 100 µM
HCT-116 colon
  GI50: 370 nM
  TGI: > 100 µM
HCT-15 colon
  GI50: 408 nM
  TGI: > 100 µM
HL-60(TB) leukemia
  GI50: 594 nM
  TGI: 5.09 µM
HOP-62 NSCLC
  GI50: 729 nM
  TGI: 50.8 µM
HS 578T breast
  GI50: 522 nM
  TGI: > 100 µM
HT29 colon
  GI50: 3.99 µM
  TGI: > 100 µM
IGROV1 ovarian
  GI50: 923 nM
  TGI: > 100 µM
K-562 leukemia
  GI50: 468 nM
  TGI: > 100 µM
KM12 colon
  GI50: 1450 nM
  TGI: > 100 µM
LOX IMVI melanoma
  GI50: 559 nM
  TGI: 13.4 µM
M14 melanoma
  GI50: 815 nM
MALME-3M melanoma
  GI50: 2020 nM
  TGI: > 100 µM
MCF7 breast
  GI50: 334 nM
  TGI: > 100 µM
MDA-MB-231 breast
  GI50: 1280 nM
  TGI: > 86.5 µM
MDA-MB-435
  GI50: 571 nM
  TGI: > 100 µM
MOLT-4 leukemia
  GI50: 707 nM
  TGI: > 100 µM
NCI-H226 lung
  GI50: 3.78 µM
  TGI: > 100 µM
NCI-H23 lung
  GI50: 496 nM
  TGI: > 61 µM
NCI-H460 lung
  GI50: 412 nM
  TGI: 16.4 µM
NCI-H522 lung
  GI50: 353 nM
  TGI: > 100 µM
NCI/ADR-RES ovarian
  GI50: 309 nM
  TGI: > 34.8 µM
OVCAR-4 ovarian
  GI50: 3.65 µM
  TGI: > 100 µM
OVCAR-5 ovarian
  GI50: 3.83 µM
  TGI: > 100 µM
OVCAR-8 ovarian
  GI50: 519 nM
  TGI: > 100 µM
PC-3 prostate
  GI50: 586 nM
  TGI: > 100 µM
RPMI-8226 leukemia
  GI50: 460 nM
  TGI: > 100 µM
RXF 393 renal
  GI50: 2590 nM
  TGI: > 58.2 µM
SF-268 CNS
  GI50: 782 nM
  TGI: > 100 µM
SF-295 CNS
  GI50: 1000 nM
  TGI: > 59.6 µM
SF-539 CNS
  GI50: 919 nM
  TGI: > 37.1 µM
SK-MEL-2 melanoma
  GI50: 566 nM
SK-MEL-28 melanoma
  GI50: 2070 nM
  TGI: > 100 µM
SK-MEL-5 melanoma
  GI50: 638 nM
SK-OV-3 ovarian
  GI50: 1280 nM
  TGI: 18.2 µM
SN12C renal
  GI50: 392 nM
  TGI: > 100 µM
SNB-19 CNS
  GI50: 522 nM
  TGI: > 100 µM
SNB-75 CNS
  GI50: 707 nM
  TGI: > 62.3 µM
SR leukemia
  GI50: 409 nM
  TGI: > 100 µM
SW-620 colon
  GI50: 624 nM
  TGI: > 100 µM
T-47D breast
  GI50: 1130 nM
  TGI: > 100 µM
TK-10 renal
  GI50: 3.23 µM
  TGI: > 100 µM
U251 CNS
  GI50: 470 nM
  TGI: > 100 µM
UACC-257 melanoma
  GI50: 2160 nM
  TGI: > 28.7 µM
UACC-62 melanoma
  GI50: 1180 nM
  TGI: 6.73 µM
UO-31 renal
  GI50: 458 nM
  TGI: 15.3 µM
